Assay results reported in US8603493B2, “Carbosilane dendrimers, preparation method thereof and use of same” (Dendrico, S.L., priority 2005, dated 2013).
“Also recorded” adds a separate entry of the source.

Columns and labels:
SK-N-MC cells [1] = test: Proliferation of SK-N-MC cells incubated with dendrimers (MTS); assay type: cell-based; conditions: 3 days
Method: (§1) The tests were performed with the dendrimers NN (2G-[Si(O(CH2)2N(Me)(CH2)2NMe3^+I^−)]8 (26)) and NN16 (2G-[Si(O(CH2)2N^+(Me)2(CH2)2NMe3^+2I^−)]8 (36)). The transfection tests were performed with the anti-rev RF ODN (SEQ ID NO:2). The culture medium was DMEM+10% bovine foetal serum.
(§2) Different experiments were performed, one with SK-N-MC cells and another with U-87-MG cells, which studied the effect of the dendrimers on the proliferation of said lines. For this, 7000 cells/well were plated of the corresponding in a 96-well dish. […] As positive proliferation control, cells were incubated with 20 μg/ml of LPS and, as positive death induction control, cells were used incubated with 7% DMSO. As negative control untreated cells were used.

SK-N-MC cells [2] = test: Toxicity in SK-N-MC cells: test with MTT; assay type: cell-based; conditions: 24 hours, 1, 5, 10 μM
U87-MG cells [3] = test: Toxicity in U-87-MG cells: tests with MTT
Method: A test with U-87-MG cells was performed, wherein the effect of the dendrimers on the viability of said lines was studied at different times. To do this, 15000 (24 hour incubations), 7000 (3 day incubations) or 1500 (7 day incubations) cells per well were plated in 96-well plates. The cells were incubated with different concentrations (1 μM, 5 μM and 10 μM) either NN dendrimer or NN16 dendrimer, during 24 hours, 3 days and 7 days. […] Two different positive controls were also used: cells treated with 7% DMSO and cells treated with 1% Triton X-100.
In the case of Superfect, three doses were tested, the optimum dose recommended by the manufacturer (2.5 μl), a lower dose (1.25 μl) and another higher dose (5 μl). With regard to Polyfect, specifically designed for adherent cells, the three doses tested were: optimum dose (0.6 μl), lower dose (0.3 μl) and higher dose (1.2 μl).
After each corresponding incubation time, a test was performed with MTT analogous to that described in Example 38. At the absorbance value obtained in the untreated cells (C−) it was given the value of 1 and the moiety of the absorbencies produced was used to refer to it.

SK-N-MC cells [4] = test: Transfection of SK-N-MC cells mediated by dendrimers (flow cytometry); assay type: cell-based; conditions: dendriplex with anti-rev oligonucleotide 250 nM, − charge/+ charge ratio 1:4, 24 hours
Method: (§3) 100000 cells/well were plated of the corresponding cell line in a 24-well plate with 500 μl of medium.
(§4) Dendriplexes were formed with dendrimers NN and NN16 and the fluorescent anti-rev antisense oligonucleotide in a total volume of 75 μl of medium without serum, wherein the anti-rev oligonucleotide was mixed at a concentration 250 nM and the corresponding dendrimer in different proportions, so that different − charge/+ charge ratios were obtained: 1:1, 1:2, 1:4 and 1:8. The mixture was incubated during half an hour at ambient temperature and then it was added to the corresponding well to incubate the cells with dendriplexes.
(§5) After 24 hours of incubation, the cells were removed from the well, they were washed twice with PBS, they were incubated for 1 minute with acid glycine to remove the possible moieties of dendriplexes which may have remained adhered on the cell membrane, and a final wash was performed with PBS. Finally, the cells were resuspended in 500 μl of PBS and the quantity of fluorescent oligonucleotide inside the cell was quantified by flow cytometry.

U87-MG cells [5] = test: Proliferation of U-87-MG cells incubated with dendrimers (MTS); assay type: cell-based; conditions: 1 μM, 5 μM and 10 μM, 3 days
Method: as §1, §2

U87-MG cells [6] = test: Toxicity in U-87-MG cells: LDH in the supernatant; conditions: 24 hours
Description: The concentrations and volumes of each one of these compounds were the same used in the test performed with MTT. The commercial kit Cytotoxicity Detection KitPLUS (LDH), from Roche Applied Science was used to determine lactate dehydrogenase, following the manufacturer's instructions.

U87-MG cells [7] = test: Transfection of U87-MG cells mediated by dendrimers (flow cytometry); assay type: cell-based; conditions: dendriplex with anti-rev oligonucleotide 250 nM, − charge/+ charge ratio 1:8, 24 hours
Method: as §3, §4, §5

[8] = Dendrimer-drug binding test (polyacrylamide gel delay), methotrexate; conditions: dendrimer 100 μM, charge ratios 1+/1− to 8+/1−, 37° C., 1 hour
Method: (§6) The drugs chosen to perform the tests, all with at least one negative charge at physiological pH, were: • Methotrexate (sodium salt): • 1 charge (−) • Supplying laboratory: Almirall • Presentation: 25 mg/ml solution • Excipients: NaCl, NaOH, HCl, double-distilled H2O • Heparin (sodium salt) • Several charges (−) • Supplying laboratory: Rovi • Presentation: 10 mg/ml solution (1000 U) • Excipients: methyl p-oxybenzoate, propyl p-oxybenzoate, NaCl, double-distilled H2O • Insulin (recombinant human insulin) • 4 charges (−) • Supplying laboratory: Novo Nordisk • Product trade name: Actrapid • Presentation: 3.5 mg/ml solution (100 U) • Excipients: ZnCl2, HCl, NaOH, double-distilled H2O
(§7) The determination of the bond and complex formation between the dendrimer and the drug was performed by evaluating the delay in the polyacrylamide gel of the dendrimer bound to drug with respect to the free dendrimer: • Complex formation: It is performed in a final volume of the mixture of 30 μl, which is the maximum volume to load in the gel. To do this, one starts from the necessary quantity of dendrimer that provides a perfectly identifiable band by staining with silver nitrate in the gel once the electrophoresis has been carried out: 20 μl of a 100 μM solution, which corresponds to […] molecules. The drug is added in the 10 μl at different concentrations to produce the chosen (+) and (−) charge ratios, also determining the quantity of drug molecules present in the mixture. An incubation of said mixture was performed at 37° C. during 1 hour to give time for a more thermodynamically stable complex to form, although more time may be needed for its formation. Each complex is performed in duplicate. • Electrophoresis and gel staining: The gels used were 7.5% polyacrylamide/bisacrylamide, prepared with 1.5M Tris pH 8.8. Each electrophoresis was carried out at 90 volts during 4 hours, after which the gel was stained with silver nitrate and photographed. […]

[9] = molecular target: T1, Insulin (recombinant human insulin) (Homo sapiens, UniProt P01308); test: Dendrimer-drug binding test (polyacrylamide gel delay), insulin; conditions: dendrimer 100 μM, insulin 1, 0.5, 0.1, 0.05 U, 37° C., 1 hour
T1 construct: Despite having its molecular weight (5825 g/mol) and establishing an average of 4 (−) charges; purchased Novo Nordisk Actrapid (trade name; no catalogue number given)
Method: as §6, §7

[10] = Dendrimer-drug binding test (polyacrylamide gel delay), heparin; conditions: dendrimer 100 μM, heparin 10, 1, 0.5, 0.1 U, 37° C., 1 hour
Method: as §6, §7

T1 sequence (P01308 25-54 limits assumed): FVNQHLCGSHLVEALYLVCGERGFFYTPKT
T1 sequence (P01308 90-110 limits assumed): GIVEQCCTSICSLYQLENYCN

## C[N+](C)(C)CC[N+](C)(C)CCO[Si](C)(C)CCC[Si](C)(CCC[Si](CCC[Si](C)(CCC[Si](C)(C)OCC[N+](C)(C)CC[N+](C)(C)C)CCC[Si](C)(C)OCC[N+](C)(C)CC[N+](C)(C)C)(CCC[Si](C)(CCC[Si](C)(C)OCC[N+](C)(C)CC[N+](C)(C)C)CCC[Si](C)(C)OCC[N+](C)(C)CC[N+](C)(C)C)CCC[Si](C)(CCC[Si](C)(C)OCC[N+](C)(C)CC[N+](C)(C)C)CCC[Si](C)(C)OCC[N+](C)(C)CC[N+](C)(C)C)CCC[Si](C)(C)OCC[N+](C)(C)CC[N+](C)(C)C [NN16, 2G-[Si(O(CH2)2N^+(Me)2(CH2)2NMe3^+2I^−)]8]
SK-N-MC cells [1]; 1 μM and 5 μM
  effect on cell proliferation (MTS): do not produce toxicity nor cell proliferation
SK-N-MC cells [1]; 10 μM
  effect on cell proliferation (MTS): toxic
SK-N-MC cells [2]
  toxicity (MTT), comparison: least toxicity
U87-MG cells [3]; 3 days, any one of the three concentrations (1, 5, 10 μM)
  viability (MTT), untreated cells (C−) = 1: ~0.8
U87-MG cells [3]; 7 days, 10 μM
  viability (MTT), untreated cells (C−) = 1: 0.7
SK-N-MC cells [4]
  percentage of cells transfected (maximum transfection): 82.3%
U87-MG cells [5]
  effect on cell proliferation (MTS): neither induce proliferation nor cell death
U87-MG cells [6]
  cytotoxicity (LDH), comparison: greater cytotoxicity as their concentration increases; also recorded: less toxic than NN
U87-MG cells [7]
  percentage of cells transfected: 97.8%
[8]
  dendrimer-methotrexate complex formation (delay in gel): complex is formed
[9]
  dendrimer-insulin complex formation (delay in gel): complex is formed
[10]
  dendrimer-heparin complex formation (delay in gel): complex is formed
